The source of these data is patent US12297186B2, “Benzylamide derivatives as inhibitors of transforming growth factor-beta receptor I/ALK5” (AGOMAB SPAIN, S.L.U., priority 2019, dated 2025).

The test system of data set [1] is heart valves. The following applies: rats, all doses tested; cited from earlier work.
The conditions of data set [2]: rats; cited from earlier work.
The nature of data set [3]: Identification study of metabolite. Format: in vitro ADME. The text has this: In an identification study of metabolite was identified Compound A. Said compound is 2-(3-(6-methylpyridin-2-yl)-4-(quinolin-4-yl)-1H-pyrazol-1-yl)acetic acid and has the following formula: […]
Compound A was identified as the major metabolite of examples 9, 15, 20, 22, 24 and 26, among others.

Data set [4] deals with Human TGFβR-1 kinase (Homo sapiens (Human), UniProt P36897). In words: In vitro enzyme assay: inhibition of TGFβR-1 kinase activity (ADP-Glo). Format: biochemical. The conditions noted are these: TGFβR-1 kinase, 50 μM ATP; read-out: IC50 range. As for the experimental part:
In Vitro Enzyme Assay: Inhibition of TGFβR-1Kinase Activity
Human TGFβl R-1 inhibition experiments were carried out in a white 384-microplate low flange (Corning 3572) with ADP-Glo kinase Assay Kit (Promega V9101) and TGβR-1 Kinase Enzyme System (Promega V4092). […] The reaction mixture was incubated in gentle shaking for 120 min at RT, after incubation of 10 μL of ADP-Glo Reagent was added and incubated in gentle shaking for 40 min at RT. 20 μL of Kinase Detection Reagent was added and plate was incubated in gentle shaking for 30 min at RT. Luminiscence (1000 ms) was measured in Perkin Elmer EnSpire Multimode plate reader.
(In general: ADP-Glo first removes unused ATP, then detects ADP through luciferase.)

Data set [5] in a line: Metabolic stability assay, rat microsomes. Format: in vitro ADME. The following applies: for microsomal CLint: rat recombinant microsomes (Tebu-Xenotech), pH 7.4. The protocol:
(§1) Metabolic Stability Assay
(§2) Human and rat recombinant microsomes from Tebu-Xenotech were employed in the assay. They content 0.5 mg/ml of protein. The following quantities were added to each well of a 96-well microplate.
(§3) Plates were incubated at 37° C. and 75 μL samples were taken at 0, 10, 20, 40 and 60 minutes. Samples were transferred to a microplate and 75 μl Acetonitrile were added for inactivating the microsomes, and 30 μl of H2O for improving the chromatographic conditions and kept at 4° C. When all the samples were taken the plate was centrifuged at […] for 30 min at 15° C. Supernatant was taken and injected in the UPLC-MS/MS.
(§4) Stationary phase: Reverse phase Acquity UPLC® BEH C18 1.7 μm (2.1 mm×50 mm) (Waters). Mobile phase: A: 0.1% formic; B:acetonitrile+0.1% formic acid. Flow: 0.6 ml/min. The chromatographic equipment employed was an UPLC QSM Waters Acquity. Compound concentrations were calculated from the UV peak areas. The response was linear in the range between 10 ng/ml and 0.3125 ng/ml. Metabolic stability was calculated from the logarithm of the remaining compound at each of the times evaluated.
(§5) The data will be fitted to the one phase exponential decay equation using GraphPad Prism® software. The half-life (t1/2) generated by the software will be reported. Intrinsic clearance will be calculated using the formula where, k=decay rate constant (min^−1).

The nature of data set [6]: Metabolic stability assay, human microsomes. Format: in vitro ADME. The conditions noted are these: for microsomal CLint: human recombinant microsomes (Tebu-Xenotech). The protocol: as §1, §2, §3, §4, §5
The target in data set [7] is TGF-beta kinase (ALK-5) (Homo sapiens (Human), UniProt P36897). Description: Determination of the intracellular TGF-beta kinase activity (ALK-5), p-SMAD3 AlphaLISA in A549 cells. Format: cell-based. The following applies: A549 cell line, TGF-β2 activated, p-SMAD3; read-out: IC50 range. As for the experimental part:
Determination of the Intracellular TGF-beta Kinase Activity (ALK-5)
The experiments were carried out in A549 cell line. 30000 cells were seeded in 200 μl of culture medium (Sigma D6046) supplemented with L-Glutamine (Sigma G7513), Penicillin/Streptomycin (Invitrogen 11058) and FBS (Sigma F9665) on a 96 wells microplate (Becton Dickinson 353072). After 16 hours medium waschanged to serum free medium.
For orientation: Bead proximity is the source of the signal in Alpha formats.

Data set [8] can be described thus: Plasma pharmacokinetic assay, single oral administration. Format: in vivo, male Sprague Dawley rats. The conditions noted are these: rat, P.O., 5 mg/kg. The protocol:
Plasma Pharmacokinetic Assay
The objective of this study was to investigate the plasma pharmacokinetics of some compounds of the present invention in male Sprague Dawley rats following a single oral administration. Three rats per compound were used in this study. Animals were administered with suspension formulation of each compound in 0.5% Tween-80 and 99.5% NaCMC (0.5% w/v in RO Water) by oral route at 5 mg/kg. The blood samples were collected from set of three rats at each time point in labelled micro centrifuge tube containing K2EDTA solution as anticoagulant at 0.25, 0.5, 1, 2, 4, 6, 8, 12 and 24 hr (p.o.). Plasma samples were separated by centrifugation of whole blood and stored below −70±10° C. until bioanalysis. All samples were processed for analysis by protein precipitation using acetonitrile and analysed with fit-for-purpose LC-MS/MS method (LLOQ=1.01 ng/mL). Pharmacokinetic parameters were calculated using the non-compartmental analysis tool of Phoenix WinNonlin® (Version 7.0).

The conditions of data set [9]: rats; cited from earlier work. The source holds these as a separate data set.
Data set [10] addresses ALK4 (Homo sapiens (Human), UniProt P36896). The following applies: cited from earlier work.
Data set [11] deals with TGFβRII (Homo sapiens (Human), UniProt P37173). The following applies: cited from earlier work.
For data set [12] the following is noted: dogs; cited from earlier work.
The target in data set [13] is ALK6 (Homo sapiens (Human), UniProt O00238). The following applies: cited from earlier work.
The target in data set [14] is MINK (Homo sapiens (Human), UniProt Q8N4C8). The following applies: cited from earlier work.
The target of data set [15] is ACVR2B (Homo sapiens (Human), UniProt Q13705). The following applies: cited from earlier work.
The test system of data set [16] is myelofibrosis (MF). The conditions noted are these: mouse models; cited from earlier work.
The conditions of data set [17]: in vivo; cited from earlier work.
The test system of data set [18] is human pancreatic cancer. The following applies: systemic administration; cited from earlier work.
The mark [19] stands for this setting: male, Sprague-Dawley, po, plasma.

pIC50: −log10 of the molar value. Read-outs that look alike come from different tables or passages of the source. Where only a bound is given, the exact number is not on record here.

Chain of TGF-beta kinase (ALK-5) (P36897 34-503): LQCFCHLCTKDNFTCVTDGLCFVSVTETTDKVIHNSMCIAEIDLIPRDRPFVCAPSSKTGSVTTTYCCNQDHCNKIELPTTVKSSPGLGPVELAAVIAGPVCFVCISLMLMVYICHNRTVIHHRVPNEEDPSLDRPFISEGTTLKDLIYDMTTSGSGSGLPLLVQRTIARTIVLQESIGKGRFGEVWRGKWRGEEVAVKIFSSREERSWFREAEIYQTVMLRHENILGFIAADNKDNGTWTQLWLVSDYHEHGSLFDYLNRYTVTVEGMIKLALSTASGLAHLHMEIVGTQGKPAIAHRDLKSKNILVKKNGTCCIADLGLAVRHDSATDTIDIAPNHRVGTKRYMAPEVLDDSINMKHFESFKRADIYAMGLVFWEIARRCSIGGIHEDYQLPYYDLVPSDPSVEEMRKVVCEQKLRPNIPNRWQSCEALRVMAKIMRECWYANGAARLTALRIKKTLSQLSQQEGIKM
Chain of Human TGFβR-1 kinase (P36897 34-503): as above
Chain of ALK6 (O00238 14-502): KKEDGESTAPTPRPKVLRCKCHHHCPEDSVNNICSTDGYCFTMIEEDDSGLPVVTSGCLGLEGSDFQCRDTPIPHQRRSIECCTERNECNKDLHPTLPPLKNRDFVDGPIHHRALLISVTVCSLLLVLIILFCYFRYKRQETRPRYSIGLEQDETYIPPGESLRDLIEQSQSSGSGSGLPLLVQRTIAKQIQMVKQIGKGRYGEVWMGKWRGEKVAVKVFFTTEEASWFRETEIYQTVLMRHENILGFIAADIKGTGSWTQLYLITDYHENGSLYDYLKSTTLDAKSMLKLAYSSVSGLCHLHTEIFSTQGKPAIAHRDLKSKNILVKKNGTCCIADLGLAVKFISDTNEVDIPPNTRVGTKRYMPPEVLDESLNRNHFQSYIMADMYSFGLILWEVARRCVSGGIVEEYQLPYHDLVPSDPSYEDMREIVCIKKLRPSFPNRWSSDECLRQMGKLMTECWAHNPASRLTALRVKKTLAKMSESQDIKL
Chain of ALK4 (P36896 24-505, species assumed): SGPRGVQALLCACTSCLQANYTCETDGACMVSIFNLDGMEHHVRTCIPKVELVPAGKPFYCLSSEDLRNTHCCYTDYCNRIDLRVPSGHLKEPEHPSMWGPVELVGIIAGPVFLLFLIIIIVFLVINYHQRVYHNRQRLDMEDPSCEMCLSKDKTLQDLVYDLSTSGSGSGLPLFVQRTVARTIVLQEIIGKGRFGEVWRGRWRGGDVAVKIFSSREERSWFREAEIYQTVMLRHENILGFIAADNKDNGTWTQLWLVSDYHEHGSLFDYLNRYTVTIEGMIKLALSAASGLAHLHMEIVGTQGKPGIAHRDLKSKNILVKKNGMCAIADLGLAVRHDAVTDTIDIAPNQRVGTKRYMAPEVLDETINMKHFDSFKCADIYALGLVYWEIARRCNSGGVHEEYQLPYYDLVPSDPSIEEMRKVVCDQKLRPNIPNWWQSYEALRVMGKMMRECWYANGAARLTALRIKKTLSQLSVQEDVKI
Chain of MINK (Q8N4C8 whole entry): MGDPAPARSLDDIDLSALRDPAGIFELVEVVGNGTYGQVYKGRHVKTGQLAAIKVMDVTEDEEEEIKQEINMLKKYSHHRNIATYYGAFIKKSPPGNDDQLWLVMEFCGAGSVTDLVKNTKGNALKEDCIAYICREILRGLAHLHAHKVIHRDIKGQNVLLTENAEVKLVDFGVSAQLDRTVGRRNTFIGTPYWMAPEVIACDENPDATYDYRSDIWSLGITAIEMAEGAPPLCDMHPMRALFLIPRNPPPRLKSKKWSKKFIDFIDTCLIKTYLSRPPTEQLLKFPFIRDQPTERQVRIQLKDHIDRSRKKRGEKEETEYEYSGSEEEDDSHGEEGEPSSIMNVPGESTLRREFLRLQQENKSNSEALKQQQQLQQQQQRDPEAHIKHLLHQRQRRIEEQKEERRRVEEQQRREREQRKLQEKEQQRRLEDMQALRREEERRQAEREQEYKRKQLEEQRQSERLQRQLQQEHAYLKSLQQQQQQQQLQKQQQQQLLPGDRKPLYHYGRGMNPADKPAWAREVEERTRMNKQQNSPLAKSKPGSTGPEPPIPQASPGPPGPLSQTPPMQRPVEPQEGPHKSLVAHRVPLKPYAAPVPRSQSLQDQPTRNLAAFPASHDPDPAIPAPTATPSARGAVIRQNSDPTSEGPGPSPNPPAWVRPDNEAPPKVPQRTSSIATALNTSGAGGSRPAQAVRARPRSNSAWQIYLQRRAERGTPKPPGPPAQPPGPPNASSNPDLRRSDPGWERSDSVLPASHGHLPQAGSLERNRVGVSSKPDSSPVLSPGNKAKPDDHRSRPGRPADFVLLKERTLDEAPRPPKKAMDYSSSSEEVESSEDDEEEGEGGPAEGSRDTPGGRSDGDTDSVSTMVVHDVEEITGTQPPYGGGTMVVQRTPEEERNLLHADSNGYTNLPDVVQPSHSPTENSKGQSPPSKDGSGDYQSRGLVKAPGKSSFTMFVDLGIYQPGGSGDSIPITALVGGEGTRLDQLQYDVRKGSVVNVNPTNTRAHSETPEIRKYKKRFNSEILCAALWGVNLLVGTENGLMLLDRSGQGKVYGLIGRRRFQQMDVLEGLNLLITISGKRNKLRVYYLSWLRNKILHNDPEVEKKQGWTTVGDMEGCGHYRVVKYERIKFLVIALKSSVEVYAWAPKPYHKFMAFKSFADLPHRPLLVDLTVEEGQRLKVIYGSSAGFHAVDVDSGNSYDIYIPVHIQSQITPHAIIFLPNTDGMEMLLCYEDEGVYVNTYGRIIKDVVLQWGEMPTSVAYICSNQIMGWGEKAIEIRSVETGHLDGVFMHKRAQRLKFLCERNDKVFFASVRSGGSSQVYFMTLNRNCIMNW
Chain of ACVR2B (Q13705 19-512, species assumed): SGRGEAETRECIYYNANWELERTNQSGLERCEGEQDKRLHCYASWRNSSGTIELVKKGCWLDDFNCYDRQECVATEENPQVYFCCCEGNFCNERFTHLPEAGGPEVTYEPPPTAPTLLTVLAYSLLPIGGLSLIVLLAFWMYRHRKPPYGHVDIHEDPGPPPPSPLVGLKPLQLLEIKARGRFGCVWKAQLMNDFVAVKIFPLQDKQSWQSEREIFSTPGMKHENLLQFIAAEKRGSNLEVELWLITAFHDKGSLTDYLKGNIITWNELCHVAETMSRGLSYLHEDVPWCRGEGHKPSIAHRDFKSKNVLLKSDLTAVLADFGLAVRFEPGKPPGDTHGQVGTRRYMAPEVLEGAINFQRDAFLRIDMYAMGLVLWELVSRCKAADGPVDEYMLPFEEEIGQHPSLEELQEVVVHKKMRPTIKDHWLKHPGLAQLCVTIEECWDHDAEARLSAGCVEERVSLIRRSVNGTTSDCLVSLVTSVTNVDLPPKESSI
Chain of TGFβRII (P37173 23-567): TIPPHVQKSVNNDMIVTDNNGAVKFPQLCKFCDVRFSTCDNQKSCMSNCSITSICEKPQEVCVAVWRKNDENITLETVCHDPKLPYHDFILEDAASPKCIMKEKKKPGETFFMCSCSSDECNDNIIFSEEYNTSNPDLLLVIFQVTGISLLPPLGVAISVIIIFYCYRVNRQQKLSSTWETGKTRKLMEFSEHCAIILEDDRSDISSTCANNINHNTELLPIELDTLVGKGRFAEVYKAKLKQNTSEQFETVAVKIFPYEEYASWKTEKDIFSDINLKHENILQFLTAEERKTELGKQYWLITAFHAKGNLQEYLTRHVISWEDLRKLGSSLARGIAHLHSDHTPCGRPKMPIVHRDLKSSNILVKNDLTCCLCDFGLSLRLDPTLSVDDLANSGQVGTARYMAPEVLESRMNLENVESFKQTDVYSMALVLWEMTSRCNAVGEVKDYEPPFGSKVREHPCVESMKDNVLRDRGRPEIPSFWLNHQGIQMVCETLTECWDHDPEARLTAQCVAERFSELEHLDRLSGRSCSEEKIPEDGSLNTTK

Turning to `c1ccc(-c2nc3c(c(-n4ccc5cnccc54)n2)CCC3)nc1` [AZ12601011], the “Histopathology finding in heart” value in [1] is reported as “heart valve lesions”.

Turning to `Cc1ccc(Oc2ccnc(Nc3ccc(S(N)(=O)=O)cc3)c2)c(C)n1` [AZ12799734], the “Histopathology finding in heart” value in [1] is “heart valve lesions”.

Regarding `Cc1cccc(-c2[nH]c(CNc3ccccc3F)nc2-c2ccc3ncnn3c2)n1` [EW-7197], the oral bioavailability in [2] is 51%.

One may read the pIC50 as the negative decadic logarithm of the IC50, by convention in mol/L. What is called microsomal CLint is the rate of metabolic loss divided by the concentration. In the case of `Cc1ccc(CNC(=O)Cn2cc(-c3ccnc4ccccc34)c(-c3cccc(C)n3)n2)cc1` [Example 20, N-(4-methylbenzyl)-2-(3-(6-methylpyridin-2-yl)-4-(quinolin-4-yl)-1H-pyrazol-1-yl)acetamide], the Major metabolite identified entry in [3] was “Compound A”. Moreover, the pIC50 in data set [4] and in data set [7] was greater than 7.00 each time. The results for the “% remanent (sampling time 60 min)” value in [5] and in data set [6] were 0.02% and 0.01%, respectively. Also, the values for the microsomal CLint in data set [5] and in data set [6] were 381 µL/min/mg and 216 µL/min/mg, respectively.

As usually defined, the AUC(0-inf) is the area under the concentration-time curve extrapolated to infinity. Read a high AUC(0-inf) as more exposure. As a reminder, the AUC(0-t) is the area under the concentration-time curve up to a stated or last time point. A higher AUC(0-t) goes with high exposure. One may read the Cmax as the maximum level reached in the sampled fluid or tissue. Usually Tmax stands for the time at which the peak concentration occurs. With `Cc1cccc(-c2nn(CC(=O)NCc3ccccc3Cl)cc2-c2ccnc3ccccc23)n1` [Example 22, N-(2-chlorobenzyl)-2-(3-(6-methylpyridin-2-yl)-4-(quinolin-4-yl)-1H-pyrazol-1-yl)acetamide], in data set [8] (setting [19]), the AUC(0-inf) stood at 15.3 ng·h/mL, the AUC(0-t) was 13.7 ng·h/mL, the Cmax was determined as 20 ng/mL and the Tmax came to 19.8 min. Also, in data set [3], the Major metabolite identified result is on record as “Compound A”. Also, the negative logarithm of the IC50 (pIC50) in [4] is greater than 7.00. Besides, in data set [5], the “% remanent (sampling time 60 min)” value is listed as 0.14% and the microsomal CLint was 644 µL/min/mg. Further, in data set [6], the “% remanent (sampling time 60 min)” value amounted to 0.03% and the microsomal CLint amounted to 378 µL/min/mg. The pIC50 in data set [7] was greater than 7.00.

For the compound `Cc1cccc(-c2nn(CC(=O)NCc3c(F)cccc3F)cc2-c2ccnc3ccccc23)n1` [Example 24, N-(2,6-difluorobenzyl)-2-(3-(6-methylpyridin-2-yl)-4-(quinolin-4-yl)-1H-pyrazol-1-yl)acetamide], the “Plasma concentrations quantifiable (PK parameters not calculable)” value in data set [8] (LLOQ 1.01 ng/mL) was “Concentrations were quantifiable only at 0.25”. In addition, in [3], the Major metabolite identified entry is “Compound A”. Also, the pIC50 in [4] and in [7] was greater than 7.00 in each case. Further, the “% remanent (sampling time 60 min)” value in data set [5] is listed as 0.01%; in data set [6] it was 0.05%. Also, the microsomal CLint in data set [5] was determined as 360 µL/min/mg; in [6] it was 307 µL/min/mg.

`Cc1cccc(-c2nn(CC(=O)NCc3c(C)cccc3C)cc2-c2ccnc3ccccc23)n1` [Example 26, N-(2,6-dimethylbenzyl)-2-(3-(6-methylpyridin-2-yl)-4-(quinolin-4-yl)-1H-pyrazol-1-yl)acetamide]: in [3], the Major metabolite identified result was “Compound A”. For the same compound, the pIC50 in [4] was greater than 7.00; in data set [7], 6.30 to 7.00. In addition, the entries for the “% remanent (sampling time 60 min)” value in data set [5] and in data set [6] were 0.08% and 0.05%, respectively. The microsomal CLint in data set [5] was found to be 826 µL/min/mg; in data set [6] it was 622 µL/min/mg.

For the compound `Cc1cccc(-c2nn3c(c2-c2ccnc4ccc(C(N)=O)cc24)CCC3)n1` [Galunisertib], the “Major target organs for toxicity” value in data set [9] was “the heart and great vessels”; in [12], “the heart and great vessels”. The pIC50 in data set [10] was 6.11. In data set [11], the “IC50 TGFβRII” value is “submicromolar”. Besides, the “IC50 ALK6” value in [13] is reported as “submicromolar”. The “IC50 MINK” value in data set [14] is listed as “submicromolar”. Further, in data set [15], the “IC50 ACVR2B” value was “submicromolar”. Besides, the Effect on myelofibrosis entry in data set [16] is “significantly improved MF”. Besides, the “oral bioavailability” value in data set [17] is given as “orally bioavailable”.

Consider `c1ccc(-c2nn3c(c2-c2ccnc4cc(OCCN5CCOCC5)ccc24)CCC3)nc1` [LY2109761], for which the Effect on metastasis result in [18] was “suppresses liver and other abdominal site metastasis”.
